{"source": "patent US9409952B2", "about": "“Peptide-compound cyclization method” (Chugai Seiyaku Kabushiki Kaisha, priority 2011, dated 2016)", "key": {"[1]": {"test": "PAMPA (parallel artificial membrane permeability assay)", "format": "in vitro ADME", "details": "PAMPA", "procedure,_shortened": "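Artificial membrane was 10% (w/v) egg lecithin plus 0.5% (w/v) cholesterol in dodecane on a PVDF filter. A 10 mM DMSO stock was added at 0.5% (v/v) to donor buffer (50 mM MOPSO, pH 6.5, 5.0% glycocholic acid). After 18 h at 37 °C, LC/MS or LC/UV gave donor and acceptor levels for Pe.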"}, "[2]": {"test": "Metabolic stability in human hepatic microsome", "format": "in vitro ADME", "details": "microsomes"}, "[3]": {"details": "membrane permeation rate (Pe), 50 mM MOPSO buffer pH 6.5 with 5.0% glycocholic acid, 37° C., 18 hours, read-out: iPAMPA Pe"}, "[4]": {"details": "pH 7.4, human hepatic microsome, NADPH(+), read-out: CL NADPH(+)"}}, "note": "Where two headings read alike, the source gives them in different places. Starred links: 1 amine or outer side, 2 acyl side, 3 side chain; linkers in the order of their positions; H or OH if unused. Positions of bridges follow the written chain, without caps; N, C: chain ends. Non-standard residues stand in square brackets, D forms with d. Residues, ends and D or L forms follow the SMILES beside them. *: point of attachment. NMeF = CN[C@@H](Cc1ccccc1)C(=O)O; NMeGABA = CN(CCCC(=O)[*:2])[*:1]; NMeβAla = CN(CCC(=O)[*:2])[*:1]; NMeL = CN[C@@H](CC(C)C)C(=O)O; NMeV = CN[C@H](C(=O)O)C(C)C; NMeA = CN[C@@H](C)C(=O)O; Piperidide = C1CCN(*)CC1; dNMeA = CN[C@H](C)C(=O)O; Sar = CNCC(=O)O; tBu = CC(C)(C)*", "data": [{"smiles": "CC[C@H](C)[C@@H]1NC(=O)[C@H](C)N(C)C(=O)[C@H](CC(C)C)NC(=O)[C@H]([C@@H](C)O)NC(=O)CNC(=O)[C@@H]2CCCN2C(=O)[C@H](COC(C)(C)C)NC(=O)[C@H](CC(C)C)N(C)C(=O)[C@H](Cc2ccccc2)NC(=O)CCCN(C)C(=O)C[C@@H](C(=O)N2CCCCC2)NC(=O)[C@H](Cc2ccccc2)N(C)C1=O", "note": "[DP-107] ([NMeGABA]F[NMeL]S(tBu)PGTL[NMeA]I[NMeF]D-Piperidide; lactam N-12)", "values": [{"measurement": "Papp at 18 hours, 50 µM", "setting": "[1]; [3]", "value": 23, "unit": "×10⁻⁶ cm/s"}, {"measurement": "microsomal CLint at 1 uM", "setting": "[2]; [4]", "value": 14, "unit": "µL/min/mg"}]}, {"smiles": "CC[C@H](C)[C@@H]1NC(=O)[C@H](C)N(C)C(=O)[C@H]([C@@H](C)O)NC(=O)[C@H](Cc2ccccc2)N(C)C(=O)CNC(=O)[C@H](CC(C)C)N(C)C(=O)[C@H](C(C)C)NC(=O)[C@H](CC(C)C)N(C)C(=O)[C@H](Cc2ccccc2)NC(=O)[C@H](C)N(C)C(=O)CCCN(C)C(=O)C[C@@H](C(=O)N2CCCCC2)NC1=O", "note": "[DP-108] ([NMeGABA][NMeA]F[NMeL]V[NMeL]G[NMeF]T[NMeA]ID-Piperidide; lactam N-12)", "values": [{"measurement": "Papp at 18 hours, 50 µM", "setting": "[1]; [3]", "value": 22, "unit": "×10⁻⁶ cm/s"}, {"measurement": "microsomal CLint at 1 uM", "setting": "[2]; [4]", "value": 48, "unit": "µL/min/mg"}]}, {"smiles": "CC[C@H](C)[C@@H]1NC(=O)[C@H](Cc2ccccc2)N(C)C(=O)[C@@H]2CCCN2C(=O)[C@H]([C@@H](C)O)NC(=O)[C@H](CC(C)C)NC(=O)[C@H](C)N(C)C(=O)CCCN(C)C(=O)C[C@@H](C(=O)N2CCCCC2)NC(=O)[C@H](CC(C)C)NC(=O)[C@H](CC(C)C)N(C)C(=O)CNC(=O)[C@H](Cc2ccccc2)N(C)C1=O", "note": "[DP-109] ([NMeGABA][NMeA]LTP[NMeF]I[NMeF]G[NMeL]LD-Piperidide; lactam N-12)", "values": [{"measurement": "Papp at 18 hours, 50 µM", "setting": "[1]; [3]", "value": 30, "unit": "×10⁻⁶ cm/s"}, {"measurement": "microsomal CLint at 1 uM", "setting": "[2]; [4]", "value": 36, "unit": "µL/min/mg"}]}, {"smiles": "CC[C@H](C)[C@@H]1NC(=O)[C@H](Cc2ccccc2)N(C)C(=O)[C@@H](C)NC(=O)C[C@@H](C(=O)N2CCCCC2)NC(=O)[C@H](C(C)C)N(C)C(=O)[C@H](Cc2ccccc2)N(C)C(=O)[C@H](COC(C)(C)C)NC(=O)[C@H](CC(C)C)N(C)C(=O)CN(C)C(=O)[C@H]([C@@H](C)O)NC(=O)[C@H](CC(C)C)N(C)C1=O", "note": "[DP-110] ([dA][NMeF]I[NMeL]T[Sar][NMeL]S(tBu)[NMeF][NMeV]D-Piperidide; lactam N-11)", "values": [{"measurement": "Papp at 18 hours, 50 µM", "setting": "[1]; [3]", "value": 30, "unit": "×10⁻⁶ cm/s"}, {"measurement": "microsomal CLint at 1 uM", "setting": "[2]; [4]", "value": 36, "unit": "µL/min/mg"}]}, {"smiles": "CC(C)C[C@@H]1NC(=O)[C@H](CC(C)C)NC(=O)[C@H](C)N(C)C(=O)C[C@@H](C(=O)N2CCCCC2)NC(=O)[C@H](C(C)C)N(C)C(=O)[C@H](CC(C)C)NC(=O)[C@H](Cc2ccccc2)NC(=O)[C@H]([C@@H](C)O)NC(=O)CN(C)C(=O)[C@H](CC(C)C)NC(=O)[C@H](C)NC1=O", "note": "[DP-111] ([NMeA]LLAL[Sar]TFL[NMeV]D-Piperidide; lactam N-11)", "values": [{"measurement": "Papp at 18 hours, 50 µM", "setting": "[1]; pH 6.5", "value": 12, "unit": "×10⁻⁶ cm/s"}, {"measurement": "microsomal CLint at 1 uM", "setting": "[2]; human, pH 7.4, CL NADPH(+)", "value": 17, "unit": "µL/min/mg"}]}, {"smiles": "CC[C@H](C)[C@@H]1NC(=O)[C@H](CC(C)C)N(C)C(=O)[C@H](C(C)C)N(C)C(=O)[C@H](C)NC(=O)[C@H](C)N(C)C(=O)[C@H](Cc2ccccc2)NC(=O)[C@H]([C@@H](C)O)NC(=O)[C@H](CC(C)C)N(C)C(=O)[C@H](CC(C)C)N(C)C(=O)[C@H](C)N(C)C(=O)C[C@@H](C(=O)N2CCCCC2)NC1=O", "note": "[DP-112] ([NMeA][NMeL][NMeL]TF[NMeA]A[NMeV][NMeL]ID-Piperidide; lactam N-11)", "values": [{"measurement": "Papp at 18 hours, 50 µM", "setting": "[1]; pH 6.5", "value": 35, "unit": "×10⁻⁶ cm/s"}, {"measurement": "microsomal CLint at 1 uM", "setting": "[2]; human, pH 7.4, CL NADPH(+)", "value": 49, "unit": "µL/min/mg"}]}, {"smiles": "CC[C@H](C)[C@@H]1NC(=O)[C@@H]2CCCN2C(=O)[C@H]([C@@H](C)O)NC(=O)[C@H](Cc2ccccc2)NC(=O)CNC(=O)[C@H](Cc2ccccc2)N(C)C(=O)[C@H](CC(C)C)NC(=O)[C@H](CC(C)C)N(C)C(=O)[C@H](CC(C)C)N(C)C(=O)CCCN(C)C(=O)C[C@@H](C(=O)N2CCCCC2)NC1=O", "note": "[DP-113] ([NMeGABA][NMeL][NMeL]L[NMeF]GFTPID-Piperidide; lactam N-11)", "values": [{"measurement": "Papp at 18 hours, 50 µM", "setting": "[1]; pH 6.5", "value": 28, "unit": "×10⁻⁶ cm/s"}, {"measurement": "microsomal CLint at 1 uM", "setting": "[2]; human, pH 7.4, CL NADPH(+)", "value": 84, "unit": "µL/min/mg"}]}, {"smiles": "CC[C@H](C)[C@@H]1NC(=O)[C@H](CC(C)C)N(C)C(=O)CCCN(C)C(=O)C[C@@H](C(=O)N2CCCCC2)NC(=O)[C@H](CC(C)C)N(C)C(=O)[C@H](C)N(C)C(=O)[C@H]([C@@H](C)O)NC(=O)[C@H](CC(C)C)N(C)C(=O)[C@H](COC(C)(C)C)NC(=O)[C@H](Cc2ccccc2)N(C)C(=O)[C@H](Cc2ccccc2)N(C)C1=O", "note": "[DP-114] ([NMeGABA][NMeL]I[NMeF][NMeF]S(tBu)[NMeL]T[NMeA][NMeL]D-Piperidide; lactam N-11)", "values": [{"measurement": "Papp at 18 hours, 50 µM", "setting": "[1]; pH 6.5", "value": 44, "unit": "×10⁻⁶ cm/s"}, {"measurement": "microsomal CLint at 1 uM", "setting": "[2]; human, pH 7.4, CL NADPH(+)", "value": 56, "unit": "µL/min/mg"}]}, {"smiles": "CC[C@H](C)[C@@H]1NC(=O)[C@H](Cc2ccccc2)N(C)C(=O)[C@H](CC(C)C)NC(=O)[C@H](CC(C)C)NC(=O)[C@H](Cc2ccccc2)NC(=O)[C@H](CC(C)C)NC(=O)[C@@H](C)NC(=O)C[C@@H](C(=O)N2CCCCC2)NC(=O)[C@H](Cc2ccccc2)NC(=O)[C@H]([C@@H](C)O)NC1=O", "note": "[DP-115] ([dA]LFLL[NMeF]ITFD-Piperidide; lactam N-10)", "values": [{"measurement": "Papp at 18 hours, 50 µM", "setting": "[1]; [3]", "value": 0.45, "unit": "×10⁻⁶ cm/s"}, {"measurement": "microsomal CLint at 1 uM", "setting": "[2]; [4]", "value": 28, "unit": "µL/min/mg"}]}, {"smiles": "CC(C)C[C@@H]1NC(=O)[C@H]([C@@H](C)O)NC(=O)[C@H](CC(C)C)NC(=O)[C@H](CC(C)C)N(C)C(=O)[C@H](Cc2ccccc2)NC(=O)[C@H](Cc2ccccc2)NC(=O)[C@H](C)N(C)C(=O)C[C@@H](C(=O)N2CCCCC2)NC(=O)[C@H](Cc2ccccc2)N(C)C(=O)CNC1=O", "note": "[DP-116] ([NMeA]FF[NMeL]LTLG[NMeF]D-Piperidide; lactam N-10)", "values": [{"measurement": "Papp at 18 hours, 50 µM", "setting": "[1]; [3]", "value": 23, "unit": "×10⁻⁶ cm/s"}, {"measurement": "microsomal CLint at 1 uM", "setting": "[2]; [4]", "value": 333, "unit": "µL/min/mg"}]}, {"smiles": "CC(C)C[C@@H]1NC(=O)CCN(C)C(=O)C[C@@H](C(=O)N2CCCCC2)NC(=O)[C@H](Cc2ccccc2)N(C)C(=O)CNC(=O)[C@H]([C@@H](C)O)NC(=O)[C@H](Cc2ccccc2)NC(=O)[C@H](CC(C)C)N(C)C(=O)[C@H](CC(C)C)NC(=O)[C@H](Cc2ccccc2)NC1=O", "note": "[DP-117] ([NMeβAla]LFL[NMeL]FTG[NMeF]D-Piperidide; lactam N-10)", "values": [{"measurement": "Papp at 18 hours, 50 µM", "setting": "[1]; [3]", "value": 25, "unit": "×10⁻⁶ cm/s"}, {"measurement": "microsomal CLint at 1 uM", "setting": "[2]; [4]", "value": 194, "unit": "µL/min/mg"}]}, {"smiles": "CC[C@H](C)[C@@H]1NC(=O)[C@H](CC(C)C)N(C)C(=O)CCN(C)C(=O)C[C@@H](C(=O)N2CCCCC2)NC(=O)[C@H](Cc2ccccc2)N(C)C(=O)[C@H](CC(C)C)NC(=O)CN(C)C(=O)[C@H]([C@@H](C)O)NC(=O)[C@H](C)N(C)C(=O)[C@H](C(C)C)N(C)C1=O", "note": "[DP-118] ([NMeβAla][NMeL]I[NMeV][NMeA]T[Sar]L[NMeF]D-Piperidide; lactam N-10)", "values": [{"measurement": "Papp at 18 hours, 50 µM", "setting": "[1]; pH 6.5", "value": 14, "unit": "×10⁻⁶ cm/s"}, {"measurement": "microsomal CLint at 1 uM", "setting": "[2]; human, pH 7.4, CL NADPH(+)", "value": 79, "unit": "µL/min/mg"}]}, {"smiles": "CC[C@H](C)[C@@H]1NC(=O)[C@H](Cc2ccccc2)NC(=O)[C@@H](C)N(C)C(=O)C[C@@H](C(=O)N2CCCCC2)NC(=O)[C@H](CC(C)C)NC(=O)[C@H](Cc2ccccc2)N(C)C(=O)[C@H](Cc2ccccc2)NC(=O)[C@H](CC(C)C)NC(=O)[C@H]([C@@H](C)O)NC(=O)[C@H](CC(C)C)NC1=O", "note": "[DP-119] ([dNMeA]FILTLF[NMeF]LD-Piperidide; lactam N-10)", "values": [{"measurement": "Papp at 18 hours, 50 µM", "setting": "[1]; [3]", "value": 16, "unit": "×10⁻⁶ cm/s"}, {"measurement": "microsomal CLint at 1 uM", "setting": "[2]; [4]", "value": 67, "unit": "µL/min/mg"}]}, {"smiles": "CC(C)C[C@@H]1NC(=O)[C@H](CC(C)C)N(C)C(=O)[C@H](Cc2ccccc2)N(C)C(=O)CNC(=O)[C@H]([C@@H](C)O)NC(=O)[C@H](CC(C)C)N(C)C(=O)[C@H](Cc2ccccc2)NC(=O)[C@@H](C)N(C)C(=O)C[C@@H](C(=O)N2CCCCC2)NC(=O)[C@H](COC(C)(C)C)NC1=O", "note": "[DP-120] ([dNMeA]F[NMeL]TG[NMeF][NMeL]LS(tBu)D-Piperidide; lactam N-10)", "values": [{"measurement": "Papp at 18 hours, 50 µM", "setting": "[1]; [3]", "value": 50, "unit": "×10⁻⁶ cm/s"}, {"measurement": "microsomal CLint at 1 uM", "setting": "[2]; [4]", "value": 84, "unit": "µL/min/mg"}]}]}
